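Tested at 5 concentrations; 48 h exposure; 96-well plates; endpoints linearly interpolated, else capped at highest concentration. At the GI50, growth is halved.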 Calls of active or inactive are those of the source. Rule as the data show it: active = GI50 up to about 1.1 µM and inactive = higher.
What was measured:
Assay in all cases: inhibition of tumour cell growth, NCI panel, 48 h
786-0 = system: 786-0
HCC 2998 = system: HCC 2998
HL-60 = system: HL-60
Hs-578T = system: Hs-578T
KM12 = system: KM12
LOX IMVI = system: LOX IMVI
MDA-MB-231 = system: MDA-MB-231
Malme-3M = system: Malme-3M
NCI-H226 = system: NCI-H226
NCI-H23 = system: NCI-H23
NCI/ADR-RES = system: NCI/ADR-RES
OVCAR-3 = system: OVCAR-3
SF-268 = system: SF-268
SF-295 = system: SF-295
SK-OV-3 = system: SK-OV-3
SR = system: SR
T47D = system: T47D
UACC-257 = system: UACC-257

Measured: GI50

Cc1sccc1C(=S)Nc1ccc(Cl)c(/C=N/OC(C)(C)C)c1
inactive: 786-0 21.1 µM | HCC 2998 16.4 µM | HL-60 16.9 µM | Hs-578T 22.3 µM | KM12 13.2 µM | LOX IMVI 26.6 µM | MDA-MB-231 13.3 µM | Malme-3M 15.1 µM | NCI-H226 13.9 µM | NCI-H23 15.4 µM | NCI/ADR-RES 17.8 µM | OVCAR-3 13.9 µM | SF-268 18.3 µM | SF-295 16.7 µM | SK-OV-3 21.9 µM | SR 17.6 µM | T47D 10.6 µM | UACC-257 17 µM

Cc1ccc(C2SCC(=O)N2c2ccc(-n3c(-c4ccccc4)nc4ccccc4c3=O)cc2)cc1 (stereo not drawn)
inactive: 786-0 18.7 µM | HCC 2998 17.5 µM | HL-60 19.5 µM | Hs-578T 10 µM | KM12 16.6 µM | LOX IMVI 9.98 µM | MDA-MB-231 4.84 µM | Malme-3M 22 µM | NCI-H226 18.5 µM | NCI-H23 36.4 µM | NCI/ADR-RES 19.3 µM | OVCAR-3 13.2 µM | SF-268 24.2 µM | SF-295 14.7 µM | SK-OV-3 4.95 µM | SR 7.89 µM | T47D 15.5 µM | UACC-257 24.9 µM

CC(=O)OCC(OC(C)=O)C(OC(C)=O)C(OC(C)=O)C(/C=N\Nc1nc2ccccc2c(=O)[nH]1)OC(C)=O (stereo not drawn)
inactive: 786-0 > 100 µM | HCC 2998 > 100 µM | HL-60 > 100 µM | Hs-578T > 100 µM | KM12 23.6 µM | LOX IMVI > 100 µM | MDA-MB-231 > 100 µM | Malme-3M > 100 µM | NCI-H226 > 100 µM | NCI-H23 > 100 µM | NCI/ADR-RES > 100 µM | OVCAR-3 > 100 µM | SF-268 > 100 µM | SF-295 > 100 µM | SK-OV-3 > 100 µM | SR > 100 µM | T47D > 100 µM | UACC-257 > 100 µM

C[C@H](CCC(=O)NCC(=O)O)[C@H]1CC[C@H]2[C@@H]3[C@H](O)C[C@@H]4C[C@H](O)CC[C@]4(C)[C@H]3CC[C@]12C
inactive: 786-0 > 100 µM | HCC 2998 > 100 µM | HL-60 > 100 µM | Hs-578T > 100 µM | KM12 > 100 µM | LOX IMVI > 100 µM | MDA-MB-231 > 100 µM | Malme-3M 71.6 µM | NCI-H226 > 100 µM | NCI-H23 > 100 µM | NCI/ADR-RES > 100 µM | OVCAR-3 > 100 µM | SF-268 > 100 µM | SF-295 > 100 µM | SK-OV-3 > 100 µM | SR > 100 µM | T47D > 100 µM | UACC-257 > 100 µM

NC1CSc2ccccc2NC1=O (stereo not drawn)
inactive: 786-0 > 100 µM | HCC 2998 > 100 µM | HL-60 > 100 µM | Hs-578T > 100 µM | KM12 > 100 µM | LOX IMVI > 100 µM | MDA-MB-231 > 100 µM | Malme-3M > 100 µM | NCI-H226 > 100 µM | NCI-H23 > 100 µM | NCI/ADR-RES > 100 µM | OVCAR-3 > 100 µM | SF-268 > 100 µM | SF-295 > 100 µM | SK-OV-3 > 100 µM | SR > 100 µM | T47D > 100 µM | UACC-257 > 100 µM

CC12CCC(=O)[C@@]1(C)CCCC2=O (stereo partly drawn)
inactive: 786-0 > 100 µM | HCC 2998 > 100 µM | HL-60 > 100 µM | Hs-578T > 100 µM | KM12 > 100 µM | LOX IMVI > 100 µM | MDA-MB-231 > 100 µM | Malme-3M > 100 µM | NCI-H226 > 100 µM | NCI-H23 > 100 µM | NCI/ADR-RES > 100 µM | SF-268 > 100 µM | SF-295 > 100 µM | SK-OV-3 > 100 µM | SR > 100 µM | T47D > 100 µM | UACC-257 > 100 µM

COC12c3ccccc3-c3ccccc3C1[C@H]1C(=O)OC(=O)[C@H]12 (stereo partly drawn)
inactive: 786-0 > 10 µM | HCC 2998 > 10 µM | HL-60 > 10 µM | Hs-578T > 10 µM | KM12 > 10 µM | LOX IMVI > 10 µM | MDA-MB-231 > 10 µM | Malme-3M > 10 µM | NCI-H226 > 10 µM | NCI-H23 > 10 µM | NCI/ADR-RES > 10 µM | OVCAR-3 > 10 µM | SF-268 > 10 µM | SF-295 > 10 µM | SK-OV-3 > 10 µM | SR > 10 µM | T47D > 10 µM | UACC-257 > 10 µM

CC(=O)OC1CC2CC(=O)CC1N2C (stereo not drawn)
inactive: 786-0 > 100 µM | HCC 2998 > 100 µM | HL-60 > 100 µM | Hs-578T > 100 µM | KM12 > 100 µM | LOX IMVI > 100 µM | MDA-MB-231 > 100 µM | Malme-3M > 100 µM | NCI-H226 > 100 µM | NCI-H23 > 100 µM | NCI/ADR-RES > 100 µM | OVCAR-3 > 100 µM | SF-268 > 100 µM | SF-295 > 100 µM | SK-OV-3 > 100 µM | SR > 100 µM | T47D > 100 µM | UACC-257 > 100 µM

Source: ChEMBL document CHEMBL1201862, “PubChem BioAssay data set” (2004)
